Experimental findings from paper PMC7801115, “Preclinical in vitro screening of newly synthesised amidino substituted benzimidazoles and benzothiazoles” (Journal of Enzyme Inhibition and Medicinal Chemistry, 2021) are described below.

The structures appear in SMILES notation. Where two headings read alike, the source gives them in different places. Some results are limits rather than exact numbers.

One may read the melting point as the temperature, or range, at which the solid turns liquid.

Data set [1] can be described thus: Plasma protein binding, equilibrium dialysis. In kind it is in vitro ADME. The conditions noted are these: for fraction unbound at 4 h, 5 µM: equilibrium dialysis 4 h, 37 °C; for recovery at 4 h, 5 µM: recovery in PPB experiment (value in brackets). How it is done: The extent of binding to plasma proteins was assessed using equilibrium dialysis method. Plasma (human and mouse) was spiked with test compounds and three controls (nicardipine and verapamil in both species, acebutolol in human and caffeine in mouse plasma) to obtain final concentration of 5 µM (0.5%DMSO). Hydrated membranes were inserted into equilibrium dialysis unit (HT Dialysis) according to manufacturer’s instructions. The dialysate side was then loaded with appropriate volume of buffer, while the same volume of spiked plasma was added into sample side of the well. Incubation lasted 4 h at 37 °C with gentle shaking. Afterwards, protein precipitation was done by mixing matrix matched aliquot of plasma or buffer with 3 volumes of MeCN/MeOH (2:1) mixture, containing internal standard (diclofenac). After centrifugation (at 4500 rpm, at 4 °C, for 30 min) resulting supernatants were subjected to LC-MS/MS.
(§1) All ADME samples were analysed on a Sciex API 4000 or Sciex API4500 Triple Quadrupole Mass Spectrometer (Sciex, Framingham, MA, USA) coupled to a UHPLC System (Shimadzu Nexera X2; Shimadzu, Kyoto, Japan). Samples were injected onto an UPLC column (HALO2 C18, 2.1 × 20 mm, 2 µm or Phenomenex Luna Omega Polar C18, 30 × 2.1 mm, 1.6 µm) and eluted with a gradient at temperature of 50 °C. The mobile phase was composed of acetonitrile (with 0.1% formic acid) and 0.1% formic acid in deionised water. A total run time was 1 or 1.5 min, with the flow rate of 0.7 ml/min (under gradient conditions). A positive ion mode with turbo spray, an ion source temperature of 500 °C and a dwell time of 150 ms were utilised for mass spectrometric detection. Multiple reaction monitoring (MRM) was used at the specific transitions for each compound/control tested: compound 5c: 361.9 → 304.9; compound 5d: 344.8 → 287.9; compound 5e: 349.8 → 292.9; compound 5 g: 350.8 → 293.9; compound 5 h: 344.0 → 286.9; compound 6a: 276.9 → 220.0; compound 5 b: 319.0 → 262.0; compound 6 b: 302.1 → 245.1; compound 6c: 344.9 → 288.0; compound 6d: 333.0 → 276.0; compound 6e: 316.1 → 259.0; compound 6f: 327.1 → 270.0; compound 6 g: 377.1 → 320.1; testosterone: 289.3→ 97.1; propranolol: 260.1 → 182.8; caffeine: 195.2 → 138.1; acebutolol: 337.2 → 116.2, nicardipine: 480.2 → 315.0; verapamil: 455.4 → 165.1; amprenavir: 506.2 → 245.4; diclofenac: 296.1 → 213.7 or 296.2 → 215.3; eucatropine: 292.2 → 109.1; benfluorex: 352.1 → 230.3, and warfarin: 309.2 → 163.2
Background: In equilibrium dialysis free small molecules cross a membrane that holds back macromolecules.

The nature of another data set: Stability in plasma. In kind it is in vitro ADME. The following applies: 37 °C. On the procedure:
Tested compounds (final concentration of 5 µM, 0.5% DMSO) were incubated for 4 h at 37 °C in human and mouse plasma, respectively. Aliquots were taken at different time points (0, 30, 120 and 240 min) and reaction was terminated by addition of a MeCN/MeOH (2:1) mixture, containing internal standard (diclofenac). Samples were then centrifuged (at 4500 rpm, at 4 °C, for 30 min) and resulting supernatants were subjected to LC-MS/MS analysis. The same procedure was followed for controls used in the assay: propranolol (both species), benfluorex (mouse) and eucatropine (human), respectively.
as §1

Where [2] appears, read: human plasma, read-out: PPB % bound, Human (converted).
The mark [3] stands for this setting: mouse plasma, read-out: PPB % bound, Mouse (converted).

Regarding `c1ccc2c(-c3nc4ccc(C5=NCCCN5)cc4[nH]3)c[nH]c2c1` [Compound 6e, 2-(1H-Indol-3-yl)-5(6)–(3,4,5,6-tetrahydropyrimidin-1-ium-2-yl)benzimidazole chloride], the figures for the fraction unbound at 4 h, 5 µM in data set [1] (setting [2]) and in data set [1] (setting [3]) were 0.349 and 0.259, respectively. Besides, the recovery at 4 h, 5 µM in data set [1] (human plasma) came to 81%; in data set [1] (mouse plasma), 91%. The share remaining at 4 h, 5 µM worked out at 98% in the data set “Stability in plasma” (human plasma) and 84% in the data set “Stability in plasma” (mouse plasma).

For `c1ccc(-c2nc3cc(C4=NCCCN4)ccc3[nH]2)cc1` [Compound 6a, 2-Phenyl-5(6)–(3,4,5,6-tetrahydropyrimidin-1-ium-2-yl)benzimidazole chloride], the fraction unbound at 4 h, 5 µM is 0.403 in data set [1] (setting [2]) and 0.371 in data set [1] (setting [3]). Further, the recovery at 4 h, 5 µM in data set [1] (human plasma) is 75%; in data set [1] (mouse plasma), 79%. Moreover, the amount remaining at 4 h, 5 µM in “Stability in plasma” (human plasma) was 73%; in “Stability in plasma” (mouse plasma) it was 79%.

`Cl.c1ccc2sc(-c3nc4ccc(C5=NCCCN5)cc4s3)cc2c1` [Compound 5e, 2-(Benzo[b]thiophen-2-yl)-6–(3,4,5,6-tetrahydropyrimidin-1-ium-2-yl)benzothiazole chloride] yielded a melting point greater than 300 °C. The fraction unbound at 4 h, 5 µM in data set [1] (setting [2]) was 0.021. The same compound displayed a recovery at 4 h, 5 µM in data set [1] (human plasma) of 79%. The fraction unbound at 4 h, 5 µM in data set [1] (setting [3]) is 0.013. The compound also registered a recovery at 4 h, 5 µM in data set [1] (mouse plasma) of 82%. The amount remaining at 4 h, 5 µM in “Stability in plasma” (human plasma) was 82%. The share remaining at 4 h, 5 µM in “Stability in plasma” (mouse plasma) is 77%.

As for `Cl.c1ccc2sc(-c3nc4ccc(C5=NCCCN5)cc4s3)nc2c1` [Compound 5g, 2-(Benzothiazole-2-yl)-6–(3,4,5,6-tetrahydropyrimidin-1-ium-2-yl)benzothiazole chloride], the melting point was greater than 300 °C. Besides, the fraction unbound at 4 h, 5 µM in data set [1] (setting [2]) is 0.049. The recovery at 4 h, 5 µM in data set [1] (human plasma) is 94%. In addition, in data set [1] (setting [3]), the fraction unbound at 4 h, 5 µM is 0.04. The recovery at 4 h, 5 µM in data set [1] (mouse plasma) worked out at 85%. The share remaining at 4 h, 5 µM in “Stability in plasma” (human plasma) was determined as 86%. Further, the fraction remaining at 4 h, 5 µM in “Stability in plasma” (mouse plasma) stood at 81%.

For the compound `c1ccc2c(c1)cc(-c1nc3cc(C4=NCCCN4)ccc3[nH]1)c1ccccc12` [Compound 6g, 2-(Phenanthrene-9-yl)-5(6)–(3,4,5,6-tetrahydropyrimidin-1-ium-2-yl)benzimidazole chloride], the fraction unbound at 4 h, 5 µM is 0.015 in data set [1] (setting [2]) and 0.003 in data set [1] (setting [3]). The recovery at 4 h, 5 µM came to 96% in data set [1] (human plasma) and 95% in data set [1] (mouse plasma). Further, the amount remaining at 4 h, 5 µM in the data set “Stability in plasma” (human plasma) turned out to be 85%; in the data set “Stability in plasma” (mouse plasma), 81%.

On to `FC(F)(F)c1ccc(-c2nc3cc(C4=NCCCN4)ccc3[nH]2)cc1` [Compound 6c, 2–(4-Trifluoromethylphenyl)-5(6)–(3,4,5,6-tetrahydropyrimidin-1-ium-2-yl)benzimidazole chloride], for which the fraction unbound at 4 h, 5 µM in data set [1] (setting [2]) is 0.144; in data set [1] (setting [3]) it was 0.13. In addition, the recovery at 4 h, 5 µM in data set [1] (human plasma) is 97%; in data set [1] (mouse plasma) it was 117%. For the same compound, the figures for the amount remaining at 4 h, 5 µM in the data set “Stability in plasma” (human plasma) and in the data set “Stability in plasma” (mouse plasma) were 96% and 94%, respectively.

With `c1ccc2sc(-c3nc4cc(C5=NCCCN5)ccc4[nH]3)cc2c1` [Compound 6d, 2-(Benzo[b]thiophen-2-yl)-5(6)–(3,4,5,6-tetrahydropyrimidin-1-ium-2-yl)benzimidazole chloride], the fraction unbound at 4 h, 5 µM was 0.074 in data set [1] (setting [2]) and 0.061 in data set [1] (setting [3]). Further, the recovery at 4 h, 5 µM in data set [1] (human plasma) stood at 86%; in data set [1] (mouse plasma), 89%. In addition, the figures for the fraction remaining at 4 h, 5 µM in the data set “Stability in plasma” (human plasma) and in “Stability in plasma” (mouse plasma) were 95% and 92%, respectively.

Compound `Cl.c1ccc2cc(-c3nc4ccc(C5=NCCCN5)cc4s3)ccc2c1` [Compound 5h, 2-(Naphthalene-2-yl)-6–(3,4,5,6-tetrahydropyrimidin-1-ium-2-yl)benzothiazole chloride] had a melting point greater than 300 °C. The fraction unbound at 4 h, 5 µM in data set [1] (setting [2]) is 0.024. Moreover, the recovery at 4 h, 5 µM in data set [1] (human plasma) was 80%. Moreover, the fraction unbound at 4 h, 5 µM in data set [1] (setting [3]) was 0.027. In addition, in data set [1] (mouse plasma), the recovery at 4 h, 5 µM amounted to 85%. Moreover, the share remaining at 4 h, 5 µM in “Stability in plasma” (human plasma) came out at 74%. Moreover, the amount remaining at 4 h, 5 µM in “Stability in plasma” (mouse plasma) worked out at 85%.

In turn, `Cl.c1ccc2nc(-c3nc4ccc(C5=NCCCN5)cc4s3)ccc2c1` [Compound 5d, 2-(Quinoline-2-yl)-6–(3,4,5,6-tetrahydropyrimidin-1-ium-2-yl)benzothiazole chloride] displayed a melting point greater than 300 °C. Further, the fraction unbound at 4 h, 5 µM in data set [1] (setting [2]) was 0.053. This compound gave a recovery at 4 h, 5 µM in data set [1] (human plasma) of 76%. Also, the fraction unbound at 4 h, 5 µM in data set [1] (setting [3]) is 0.04. This compound gave a recovery at 4 h, 5 µM in data set [1] (mouse plasma) of 82%. For the same compound, in the data set “Stability in plasma” (human plasma), the amount remaining at 4 h, 5 µM was 81%. The share remaining at 4 h, 5 µM in the data set “Stability in plasma” (mouse plasma) stood at 85%.

As to `c1ccc2cc(-c3nc4cc(C5=NCCCN5)ccc4[nH]3)ccc2c1` [Compound 6f, 2-(Naphthalene-2-yl)-5(6)–(3,4,5,6-tetrahydropyrimidin-1-ium-2-yl)benzimidazole chloride], the fraction unbound at 4 h, 5 µM in data set [1] (setting [2]) is 0.19; in data set [1] (setting [3]) it was 0.12. Further, the recovery at 4 h, 5 µM in data set [1] (human plasma) stood at 91%; in data set [1] (mouse plasma), 102%. In addition, the fraction remaining at 4 h, 5 µM in the data set “Stability in plasma” (human plasma) stood at 106%.

Take `Cl.FC(F)(F)c1ccc(-c2nc3ccc(C4=NCCCN4)cc3s2)cc1` [Compound 5c, 2–(4-Trifluoromethylphenyl)-6–(3,4,5,6-tetrahydropyrimidin-1-ium-2-yl)benzothiazole chloride]: the melting point is 279 to 283 °C. In addition, the fraction unbound at 4 h, 5 µM in data set [1] (setting [2]) was 0.03. The same compound registered a recovery at 4 h, 5 µM in data set [1] (human plasma) of 89%. The fraction unbound at 4 h, 5 µM in data set [1] (setting [3]) is 0.025. Besides, the recovery at 4 h, 5 µM in data set [1] (mouse plasma) is 86%. In addition, the fraction remaining at 4 h, 5 µM in the data set “Stability in plasma” (human plasma) amounted to 83%. In addition, the share remaining at 4 h, 5 µM in the data set “Stability in plasma” (mouse plasma) came to 94%.

`Cl.N#Cc1ccc(-c2nc3ccc(C4=NCCCN4)cc3s2)cc1` [Compound 5b, 2–(4-Cyanophenyl)-6–(3,4,5,6-tetrahydropyrimidin-1-ium-2-yl)benzothiazole chloride]: the melting point was greater than 300 °C. The fraction unbound at 4 h, 5 µM in data set [1] (setting [2]) was 0.334. In addition, the recovery at 4 h, 5 µM in data set [1] (human plasma) amounted to 93%. In addition, the fraction unbound at 4 h, 5 µM in data set [1] (setting [3]) was 0.249. In addition, the recovery at 4 h, 5 µM in data set [1] (mouse plasma) was determined as 98%. The amount remaining at 4 h, 5 µM in “Stability in plasma” (human plasma) was found to be 86%. For the same compound, the amount remaining at 4 h, 5 µM in the data set “Stability in plasma” (mouse plasma) stood at 95%.
